Test results published in patent US9096602B2, “Substituted pyrrolo[2,3-B]pyrazines as ATR kinase inhibitors” (Vertex Pharmaceuticals Incorporated, priority 2011, dated 2015).
Where two headings read alike, the source gives them in different places.

Target: T1, ATR kinase (full-length ATR) (Homo sapiens, UniProt Q13535)
T1 construct: Assays were carried out at 25° C. in the presence of 5 nM full-length ATR
Experiment: ATR Inhibition Assay (radioactive-phosphate incorporation)
Type: biochemical
Settings: Ki(app), 5 nM full-length ATR, 10 μM ATP, 800 μM target peptide, 25° C., read-out: ATR Inhibition Ki
Description: Compounds were screened for their ability to inhibit ATR kinase using a radioactive-phosphate incorporation assay. Assays were carried out in a mixture of 50 mM Tris/HCl (pH 7.5), 10 mM MgCl2 and 1 mM DTT. Final substrate concentrations were 10 μM [y-33P]ATP (3mCi 33P ATP/mmol ATP, Perkin Elmer) and 800 μM target peptide ([…]).
Assays were carried out at 25° C. in the presence of 5 nM full-length ATR. An assay stock buffer solution was prepared containing all of the reagents listed above, with the exception of ATP and the test compound of interest. […] The plate was pre-incubated for 10 minutes at 25° C. and the reaction initiated by addition of 15 μL [y-33P]ATP (final concentration 10 μM).
The reaction was stopped after […] by the addition of 30 μL 0.1M phosphoric acid containing 2 mM ATP. A multiscreen phosphocellulose filter 96-well plate (Millipore, Cat no. MAPHN0B50) was pretreated with 100 μL 0.2M phosphoric acid prior to the addition of 45 μL of the stopped assay mixture. The plate was washed with 5×200 μL 0.2M phosphoric acid.
After removing mean background values for all of the data points, Ki(app) data were calculated from non-linear regression analysis of the initial rate data using the Prism software package (GraphPad Prism version 3.0cx for Macintosh, GraphPad Software, San Diego Calif., USA).

[1] = given as numeric lower bound without unit

T1 sequence (Q13535 whole entry): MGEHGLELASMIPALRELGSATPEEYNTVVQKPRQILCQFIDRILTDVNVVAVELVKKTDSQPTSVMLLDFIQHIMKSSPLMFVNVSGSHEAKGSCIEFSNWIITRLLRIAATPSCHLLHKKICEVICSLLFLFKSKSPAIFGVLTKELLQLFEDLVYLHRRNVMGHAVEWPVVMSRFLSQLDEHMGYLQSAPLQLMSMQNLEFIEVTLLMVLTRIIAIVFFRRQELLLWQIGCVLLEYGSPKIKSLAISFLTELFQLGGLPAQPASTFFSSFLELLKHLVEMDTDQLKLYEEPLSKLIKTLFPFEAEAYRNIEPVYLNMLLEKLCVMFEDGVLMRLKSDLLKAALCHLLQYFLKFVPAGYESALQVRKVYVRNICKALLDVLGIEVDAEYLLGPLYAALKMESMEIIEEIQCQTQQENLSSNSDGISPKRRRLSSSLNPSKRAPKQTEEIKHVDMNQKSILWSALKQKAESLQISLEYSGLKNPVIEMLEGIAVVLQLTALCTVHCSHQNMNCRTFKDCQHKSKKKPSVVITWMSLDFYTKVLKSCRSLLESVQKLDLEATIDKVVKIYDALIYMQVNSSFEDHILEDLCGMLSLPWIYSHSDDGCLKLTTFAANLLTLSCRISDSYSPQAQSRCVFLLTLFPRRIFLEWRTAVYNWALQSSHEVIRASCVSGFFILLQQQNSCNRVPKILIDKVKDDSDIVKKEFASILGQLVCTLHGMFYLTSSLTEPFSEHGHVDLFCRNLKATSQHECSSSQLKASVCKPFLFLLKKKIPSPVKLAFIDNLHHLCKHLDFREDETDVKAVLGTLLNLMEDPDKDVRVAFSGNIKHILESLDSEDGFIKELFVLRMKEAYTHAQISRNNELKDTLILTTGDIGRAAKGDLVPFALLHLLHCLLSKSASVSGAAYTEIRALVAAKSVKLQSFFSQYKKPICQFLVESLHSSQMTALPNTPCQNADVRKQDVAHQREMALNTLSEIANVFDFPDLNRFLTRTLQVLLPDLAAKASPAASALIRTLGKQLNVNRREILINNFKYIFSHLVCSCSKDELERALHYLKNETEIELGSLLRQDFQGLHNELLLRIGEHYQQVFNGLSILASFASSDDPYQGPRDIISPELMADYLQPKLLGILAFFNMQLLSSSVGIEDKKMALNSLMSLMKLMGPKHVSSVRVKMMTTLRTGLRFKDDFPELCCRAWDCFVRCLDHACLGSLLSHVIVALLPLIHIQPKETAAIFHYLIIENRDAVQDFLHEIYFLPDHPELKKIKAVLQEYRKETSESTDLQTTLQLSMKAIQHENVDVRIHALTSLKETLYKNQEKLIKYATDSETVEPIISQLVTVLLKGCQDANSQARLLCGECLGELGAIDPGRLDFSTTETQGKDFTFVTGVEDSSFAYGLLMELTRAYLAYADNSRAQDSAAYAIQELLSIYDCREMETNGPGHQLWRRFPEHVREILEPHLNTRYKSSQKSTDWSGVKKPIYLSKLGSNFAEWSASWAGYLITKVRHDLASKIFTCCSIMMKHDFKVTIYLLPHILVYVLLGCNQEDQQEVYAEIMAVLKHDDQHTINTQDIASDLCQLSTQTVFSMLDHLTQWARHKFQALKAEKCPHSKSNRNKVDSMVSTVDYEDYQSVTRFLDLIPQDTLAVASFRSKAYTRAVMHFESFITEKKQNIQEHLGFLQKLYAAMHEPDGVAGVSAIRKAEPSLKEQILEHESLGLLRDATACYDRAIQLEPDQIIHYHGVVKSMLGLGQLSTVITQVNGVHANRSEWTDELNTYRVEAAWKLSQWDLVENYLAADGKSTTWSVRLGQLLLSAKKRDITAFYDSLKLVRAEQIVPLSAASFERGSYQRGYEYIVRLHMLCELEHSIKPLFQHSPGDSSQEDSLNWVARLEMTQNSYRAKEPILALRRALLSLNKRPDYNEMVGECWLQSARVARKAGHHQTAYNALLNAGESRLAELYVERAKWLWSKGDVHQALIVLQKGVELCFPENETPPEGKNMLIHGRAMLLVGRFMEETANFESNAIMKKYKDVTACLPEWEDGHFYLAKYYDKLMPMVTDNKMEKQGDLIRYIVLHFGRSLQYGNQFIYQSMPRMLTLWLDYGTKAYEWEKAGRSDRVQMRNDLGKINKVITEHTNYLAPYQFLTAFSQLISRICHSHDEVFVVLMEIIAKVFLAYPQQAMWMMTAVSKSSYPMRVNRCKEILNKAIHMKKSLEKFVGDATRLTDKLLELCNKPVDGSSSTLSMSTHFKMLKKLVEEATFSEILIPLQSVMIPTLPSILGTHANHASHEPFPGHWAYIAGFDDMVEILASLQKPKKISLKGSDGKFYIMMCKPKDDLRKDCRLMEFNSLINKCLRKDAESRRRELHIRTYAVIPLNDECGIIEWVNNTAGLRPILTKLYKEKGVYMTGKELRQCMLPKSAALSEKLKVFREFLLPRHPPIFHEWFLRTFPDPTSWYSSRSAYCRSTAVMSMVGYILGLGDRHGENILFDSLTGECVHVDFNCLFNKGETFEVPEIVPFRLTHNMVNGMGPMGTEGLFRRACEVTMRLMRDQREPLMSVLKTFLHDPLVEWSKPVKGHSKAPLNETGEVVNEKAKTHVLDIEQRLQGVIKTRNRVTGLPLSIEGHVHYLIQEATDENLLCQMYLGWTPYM

Row | SMILES | Ki (class symbols) [nM] | Ki [1] [nM]
1 | CC(C)S(=O)(=O)c1ccc(-c2cnc3[nH]cc(C(=O)NCc4ccccc4)c3n2)cc1 [Compound I-1, N-benzyl-2-(4-isopropylsulfonylphenyl)-5H-pyrrolo[2,3-b]pyrazine-7-carboxamide] | < 100 | 
2 | CC(C)S(=O)(=O)c1ccc(-c2cnc3[nH]cc(C(=O)Nc4ccccc4)c3n2)cc1 [Compound I-2, 2-(4-isopropylsulfonylphenyl)-N-phenyl-5H-pyrrolo[2,3-b]pyrazine-7-carboxamide] | < 100 | 
3 | CC(C)S(=O)(=O)c1ccc(-c2cnc3[nH]cc(C(=O)N(C)c4ccccc4)c3n2)cc1 [Compound I-3, 2-(4-isopropylsulfonylphenyl)-N-methyl-N-phenyl-5H-pyrrolo[2,3-b]pyrazine-7-carboxamide] |  | > 250
4 | CC(C)S(=O)(=O)c1ccc(-c2cnc3[nH]cc(C(=O)Nc4ccccn4)c3n2)cc1 [Compound I-4, 2-(4-isopropylsulfonylphenyl)-N-(2-pyridyl)-5H-pyrrolo[2,3-b]pyrazine-7-carboxamide] | 100 to 500 | 
5 | CC(C)S(=O)(=O)c1ccc(-c2cnc3[nH]cc(C(=O)Nc4cccnc4)c3n2)cc1 [Compound I-5, 2-(4-isopropylsulfonylphenyl)-N-(3-pyridyl)-5H-pyrrolo[2,3-b]pyrazine-7-carboxamide] | < 100 | 
6 | CC(C)S(=O)(=O)c1ccc(-c2cnc3[nH]cc(C(=O)Nc4ccncc4)c3n2)cc1 [Compound I-6, 2-(4-isopropylsulfonylphenyl)-N-(4-pyridyl)-5H-pyrrolo[2,3-b]pyrazine-7-carboxamide] | 100 to 500 | 
7 | CC(C)S(=O)(=O)c1ccc(-c2cnc3[nH]cc(C(=O)N4CCc5ccccc54)c3n2)cc1 [Compound I-7, indolin-1-yl-[2-(4-isopropylsulfonylphenyl)-5H-pyrrolo[2,3-b]pyrazin-7-yl]methanone] | 100 to 500 | 
8 | CC(C)S(=O)(=O)c1ccc(-c2cnc3[nH]cc(C(=O)N(Cc4ccccc4)c4ccccc4)c3n2)cc1 [Compound I-8, N-benzyl-2-(4-isopropylsulfonylphenyl)-N-phenyl-5H-pyrrolo[2,3-b]pyrazine-7-carboxamide] | 500 to 5000 | 
9 | CCN(C(=O)c1c[nH]c2ncc(-c3ccc(S(=O)(=O)C(C)C)cc3)nc12)c1ccccc1 [Compound I-9, N-ethyl-2-(4-isopropylsulfonylphenyl)-N-phenyl-5H-pyrrolo[2,3-b]pyrazine-7-carboxamide] | 500 to 5000 | 
10 | CC(C)S(=O)(=O)c1ccc(-c2cnc3[nH]cc(C(=O)N(CCO)c4ccccc4)c3n2)cc1 [Compound I-10, N-(2-hydroxyethyl)-2-(4-isopropylsulfonylphenyl)-N-phenyl-5H-pyrrolo[2,3-b]pyrazine-7-carboxamide] | 100 to 500 | 
11 | COc1cccc(NC(=O)c2c[nH]c3ncc(-c4ccc(S(=O)(=O)C(C)C)cc4)nc23)c1 [Compound I-11, 2-(4-isopropylsulfonylphenyl)-N-(3-methoxyphenyl)-5H-pyrrolo[2,3-b]pyrazine-7-carboxamide] | 500 to 5000 | 
12 | COc1ccc(NC(=O)c2c[nH]c3ncc(-c4ccc(S(=O)(=O)C(C)C)cc4)nc23)cc1 [Compound I-12, 2-(4-isopropylsulfonylphenyl)-N-(4-methoxyphenyl)-5H-pyrrolo[2,3-b]pyrazine-7-carboxamide] | 100 to 500 | 
13 | CC(C)S(=O)(=O)c1ccc(-c2cnc3[nH]cc(C(=O)Nc4cccc(C#N)c4)c3n2)cc1 [Compound I-13, N-(3-cyanophenyl)-2-(4-isopropylsulfonylphenyl)-5H-pyrrolo[2,3-b]pyrazine-7-carboxamide] | 100 to 500 | 
14 | CC(C)S(=O)(=O)c1ccc(-c2cnc3[nH]cc(C(=O)Nc4ccc(C#N)cc4)c3n2)cc1 [Compound I-14, N-(4-cyanophenyl)-2-(4-isopropylsulfonylphenyl)-5H-pyrrolo[2,3-b]pyrazine-7-carboxamide] | 500 to 5000 | 
15 | Cc1ccccc1CNC(=O)c1c[nH]c2ncc(-c3ccc(S(=O)(=O)C(C)C)cc3)nc12 [Compound I-15, 2-(4-isopropylsulfonylphenyl)-N-(o-tolylmethyl)-5H-pyrrolo[2,3-b]pyrazine-7-carboxamide] | < 100 | 
16 | Cc1cccc(CNC(=O)c2c[nH]c3ncc(-c4ccc(S(=O)(=O)C(C)C)cc4)nc23)c1 [Compound I-16, 2-(4-isopropylsulfonylphenyl)-N-(m-tolylmethyl)-5H-pyrrolo[2,3-b]pyrazine-7-carboxamide] | < 100 | 
17 | Cc1ccc(CNC(=O)c2c[nH]c3ncc(-c4ccc(S(=O)(=O)C(C)C)cc4)nc23)cc1 [Compound I-17, 2-(4-isopropylsulfonylphenyl)-N-(p-tolylmethyl)-5H-pyrrolo[2,3-b]pyrazine-7-carboxamide] | < 100 | 
18 | CC(C)S(=O)(=O)c1ccc(-c2cnc3[nH]cc(C(=O)Nc4ccc(N)cc4)c3n2)cc1 [Compound I-18, N-(4-aminophenyl)-2-(4-isopropylsulfonylphenyl)-5H-pyrrolo[2,3-b]pyrazine-7-carboxamide] | < 100 | 
19 | CC(C)S(=O)(=O)c1ccc(-c2cnc3[nH]cc(C(=O)Nc4ccccc4N)c3n2)cc1 [Compound I-19, N-(2-aminophenyl)-2-(4-isopropylsulfonylphenyl)-5H-pyrrolo[2,3-b]pyrazine-7-carboxamide] | 100 to 500 | 
20 | CC(C)S(=O)(=O)c1ccc(-c2cnc3[nH]cc(C(=O)Nc4cccc(N)c4)c3n2)cc1 [Compound I-20, N-(3-aminophenyl)-2-(4-isopropylsulfonylphenyl)-5H-pyrrolo[2,3-b]pyrazine-7-carboxamide] | < 100 | 
21 | CC(C)S(=O)(=O)c1ccc(-c2cnc3[nH]cc(C(=O)NCCN(C)C)c3n2)cc1 [Compound I-21, N-(2-dimethylaminoethyl)-2-(4-isopropylsulfonylphenyl)-5H-pyrrolo[2,3-b]pyrazine-7-carboxamide] | 500 to 5000 | 
22 | CC(C)S(=O)(=O)c1ccc(-c2cnc3[nH]cc(C(=O)Nc4cccc(O)c4)c3n2)cc1 [Compound I-22, N-(3-hydroxyphenyl)-2-(4-isopropylsulfonylphenyl)-5H-pyrrolo[2,3-b]pyrazine-7-carboxamide] | < 100 | 
23 | CC(C)S(=O)(=O)c1ccc(-c2cnc3[nH]cc(C(=O)N4CCCC(O)C4)c3n2)cc1 (stereo not drawn) [Compound I-23, (3-hydroxy-1-piperidyl)-[2-(4-isopropylsulfonylphenyl)-5H-pyrrolo[2,3-b]pyrazin-7-yl]methanone] |  | > 4000
24 | CC(C)S(=O)(=O)c1ccc(-c2cnc3[nH]cc(C(=O)Nc4ccc(CCO)cc4)c3n2)cc1 [Compound I-24, N-[4-(2-hydroxyethyl)phenyl]-2-(4-isopropylsulfonylphenyl)-5H-pyrrolo[2,3-b]pyrazine-7-carboxamide] | < 100 | 
25 | CC(C)S(=O)(=O)c1ccc(-c2cnc3[nH]cc(C(=O)Nc4ccccc4O)c3n2)cc1 [Compound I-25, N-(2-hydroxyphenyl)-2-(4-isopropylsulfonylphenyl)-5H-pyrrolo[2,3-b]pyrazine-7-carboxamide] | < 100 | 
26 | CC(C)S(=O)(=O)c1ccc(-c2cnc3[nH]cc(C(=O)Nc4cccc(CO)c4)c3n2)cc1 [Compound I-26, N-[3-(hydroxymethyl)phenyl]-2-(4-isopropylsulfonylphenyl)-5H-pyrrolo[2,3-b]pyrazine-7-carboxamide] | < 100 | 
27 | CC(C)S(=O)(=O)c1ccc(-c2cnc3[nH]cc(C(=O)N4CCCc5ccccc54)c3n2)cc1 [Compound I-27, 3,4-dihydro-2H-quinolin-1-yl-[2-(4-isopropylsulfonylphenyl)-5H-pyrrolo[2,3-b]pyrazin-7-yl]methanone] | 100 to 500 | 
